Toxic doses and inconclusive results are not listed. The calls were made as follows: active = survival T/C of 150% or more; inactive = T/C below 125% in these data.
Tested on: BDF1 mice, P388 leukemia ip, median survival T/C
Assay: NCI In Vivo Anticancer Drug Screen. Data for tumor model P388 Leukemia (intraperitoneal) in B6D2F1 (BDF1) mice
Conditions: endpoint: median survival time, higher = longer survival
Outline: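 Antitumour effect was judged in vivo: survival in drug-treated mice, normalised to that of vehicle-dosed controls, gives the reported T/C.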

[1] = dose: 66.0 mg/kg/injection, schedule: Q01DX009 (ip), vehicle: saline with Tween-80
[2] = dose: 100.0 mg/kg/injection, schedule: Q01DX009 (ip), vehicle: saline with Tween-80
[3] = dose: 100.0 mg/kg/injection, schedule: Q04DX003 (ip), vehicle: saline with Tween-80
[4] = dose: 200.0 mg/kg/injection, schedule: Q04DX003 (ip), vehicle: saline with Tween-80
[5] = dose: 400.0 mg/kg/injection, schedule: Q04DX003 (ip), vehicle: saline with Tween-80
[6] = dose: 100.0 mg/kg/injection, schedule: Q01DX001 (ip), vehicle: Klucel (hydroxypropylcellulose) (HPC)
[7] = dose: 200.0 mg/kg/injection, schedule: Q01DX001 (ip), vehicle: Klucel (hydroxypropylcellulose) (HPC)
[8] = dose: 100.0 mg/kg/injection, schedule: Q04DX003 (ip), vehicle: saline
[9] = dose: 200.0 mg/kg/injection, schedule: Q04DX003 (ip), vehicle: saline
[10] = dose: 400.0 mg/kg/injection, schedule: Q04DX003 (ip), vehicle: saline
[11] = dose: 25.0 mg/kg/injection, schedule: Q01DX009 (ip), vehicle: saline with Tween-80
[12] = dose: 50.0 mg/kg/injection, schedule: Q01DX009 (ip), vehicle: saline with Tween-80
[13] = dose: 400.0 mg/kg/injection, schedule: Q01DX001 (ip), vehicle: Klucel (hydroxypropylcellulose) (HPC)
[14] = dose: 50.0 mg/kg/injection, schedule: Q01DX009 (ip), vehicle: Klucel (hydroxypropylcellulose) (HPC)
[15] = dose: 100.0 mg/kg/injection, schedule: Q01DX009 (ip), vehicle: Klucel (hydroxypropylcellulose) (HPC)
[16] = dose: 200.0 mg/kg/injection, schedule: Q01DX009 (ip), vehicle: Klucel (hydroxypropylcellulose) (HPC)
[17] = dose: 200.0 mg/kg/injection, schedule: Q01DX009 (ip), vehicle: saline with Tween-80
[18] = dose: 400.0 mg/kg/injection, schedule: Q01DX009 (ip), vehicle: saline with Tween-80
[19] = dose: 50.0 mg/kg/injection, schedule: Q04DX003 (ip), vehicle: saline with Tween-80
[20] = dose: 25.0 mg/kg/injection, schedule: Q01DX009 (ip), vehicle: water
[21] = dose: 50.0 mg/kg/injection, schedule: Q01DX009 (ip), vehicle: water
[22] = dose: 200.0 mg/kg/injection, schedule: Q01DX009 (ip), vehicle: water
[23] = dose: 200.0 mg/kg/injection, schedule: Q04DX003 (ip), vehicle: water
[24] = dose: 400.0 mg/kg/injection, schedule: Q01DX009 (ip), vehicle: water
[25] = dose: 400.0 mg/kg/injection, schedule: Q04DX003 (ip), vehicle: water

Measured: T/C

CCN=NNc1ccc(C)cc1
inactive: dose: 8.25 mg/kg/injection, schedule: Q01DX009 (ip), vehicle: saline with Tween-80 90 % of control | dose: 16.5 mg/kg/injection, schedule: Q01DX009 (ip), vehicle: saline with Tween-80 100 % of control | [1] 100 % of control | [2] 108 % of control

Nc1nc(SCc2ccccc2)c2ncn(C3CCCC3)c2n1
inactive: [3] 100 % of control | [4] 100 % of control | [5] 100 % of control

O=C1COc2ccccc2N1
inactive: [6] 113 % of control | [7] 100 % of control

CC(=O)Nc1ccc2ccc(Cl)nc2n1
inactive: [8] 95 % of control | [9] 100 % of control | [10] 104 % of control

CC(=O)O.CC(=O)O.[Co+2].[NH-]C(CCC(N)=O)C(=O)O.[NH-]C(CCC(N)=O)C(=O)O (centres undefined)
inactive: dose: 12.5 mg/kg/injection, schedule: Q01DX009 (ip), vehicle: saline with Tween-80 87 % of control | [11] 93 % of control | [12] 98 % of control

Clc1nnc(Nc2ccccc2)c2ccccc12
inactive: [6] 100 % of control | [7] 91 % of control | [13] 104 % of control

O=C(Nc1ccc(Cl)cc1)c1ccccc1
inactive: [14] 122 % of control | dose: 50.0 mg/kg/injection, schedule: Q04DX003 (ip), vehicle: Klucel (hydroxypropylcellulose) (HPC) 95 % of control | [15] 95 % of control | dose: 100.0 mg/kg/injection, schedule: Q04DX003 (ip), vehicle: Klucel (hydroxypropylcellulose) (HPC) 91 % of control | [16] 90 % of control | dose: 200.0 mg/kg/injection, schedule: Q04DX003 (ip), vehicle: Klucel (hydroxypropylcellulose) (HPC) 100 % of control

Nc1nc(N)c(N=O)c(Nc2ccc(Br)cc2)n1
inactive: [2] 104 % of control | [17] 113 % of control | [18] 95 % of control

CCCCOCN(COCCCC)c1ccc(C)cc1
inactive: [12] 100 % of control | [2] 112 % of control

O=[N+]([O-])c1ccc(Cl)c2nonc12
inactive: dose: 15.0 mg/kg/injection, schedule: Q01DX009 (ip), vehicle: saline with Tween-80 103 % of control

Cc1cc(-c2ccccc2)[s+]s1
inactive: [11] 122 % of control | [12] 113 % of control | [19] 109 % of control | [2] 117 % of control | [4] 117 % of control | [5] 118 % of control

CCCCCCCCCCSCCSCCSCCCCCCCCCC
inactive: dose: 25.0 mg/kg/injection, schedule: Q01DX001 (ip), vehicle: Klucel (hydroxypropylcellulose) (HPC) 100 % of control | dose: 50.0 mg/kg/injection, schedule: Q01DX001 (ip), vehicle: Klucel (hydroxypropylcellulose) (HPC) 100 % of control | [6] 100 % of control

S=C1NC2=C(CCC/C2=C\c2ccccc2)C(c2ccccc2)N1 (centres undefined)
inactive: [12] 91 % of control | [2] 96 % of control

Clc1ccc(-c2cc(=[N+]3CCC4(CC3)SSC3(CC[N+](=c5cc(-c6ccc(Cl)cc6)ss5)CC3)S4)ss2)cc1 (centres undefined)
inactive: [20] 110 % of control | dose: 25.0 mg/kg/injection, schedule: Q04DX003 (ip), vehicle: water 94 % of control | [21] 121 % of control | dose: 50.0 mg/kg/injection, schedule: Q04DX003 (ip), vehicle: water 101 % of control | dose: 100.0 mg/kg/injection, schedule: Q04DX003 (ip), vehicle: water 92 % of control | [22] 121 % of control | [23] 97 % of control | [24] 121 % of control | [25] 98 % of control

C[N+](C)(C)Cc1ccccc1/C(=N\O)c1ccccc1
inactive: dose: 5.0 mg/kg/injection, schedule: Q01DX009 (ip), vehicle: saline 109 % of control | dose: 10.0 mg/kg/injection, schedule: Q01DX009 (ip), vehicle: saline 91 % of control

CN(C)CC(C(=O)Cc1ccccc1)c1ccccc1 (centres undefined)
inactive: [12] 102 % of control | [2] 111 % of control

O=C(NC12CC3CC(CC(C3)C1)C2)C(F)(F)F
inactive: [12] 98 % of control | [2] 105 % of control | [17] 102 % of control

CCOC(=O)N1CCc2cc(OC)c(OC)cc2C1Cc1ccc(OC)c(OC)c1 (centres undefined)
inactive: dose: 50.0 mg/kg/injection, schedule: Q01DX005 (ip), vehicle: saline with Tween-80 92 % of control | dose: 100.0 mg/kg/injection, schedule: Q01DX005 (ip), vehicle: saline with Tween-80 105 % of control | dose: 200.0 mg/kg/injection, schedule: Q01DX005 (ip), vehicle: saline with Tween-80 92 % of control

CCOC(=O)C1CSCC1=O (centres undefined)
inactive: dose: 12.5 mg/kg/injection, schedule: Q01DX009 (ip), vehicle: water 113 % of control | [20] 113 % of control | [21] 98 % of control | dose: 100.0 mg/kg/injection, schedule: Q01DX009 (ip), vehicle: water 104 % of control | [22] 95 % of control | [23] 101 % of control | dose: 300.0 mg/kg/injection, schedule: Q04DX003 (ip), vehicle: water 117 % of control | [24] 101 % of control | [25] 106 % of control

CN1c2ccccc2C(=O)N2CCc3c([nH]c4ccccc34)C21 (centres undefined)
inactive: dose: 10.0 mg/kg/injection, schedule: Q01DX009 (ip), vehicle: saline with Tween-80 98 % of control | dose: 20.0 mg/kg/injection, schedule: Q01DX009 (ip), vehicle: saline with Tween-80 118 % of control

CC(=O)O.[Pb]
inactive: dose: 12.5 mg/kg/injection, schedule: Q01DX009 (ip), vehicle: Klucel (hydroxypropylcellulose) (HPC) 109 % of control | dose: 25.0 mg/kg/injection, schedule: Q01DX009 (ip), vehicle: Klucel (hydroxypropylcellulose) (HPC) 109 % of control | [11] 90 % of control | [12] 90 % of control

O=C(Oc1ccccc1[N+](=O)[O-])c1ccccc1
inactive: dose: 25.0 mg/kg/injection, schedule: Q04DX003 (ip), vehicle: other 100 % of control | dose: 75.0 mg/kg/injection, schedule: Q04DX003 (ip), vehicle: other 100 % of control | dose: 150.0 mg/kg/injection, schedule: Q04DX003 (ip), vehicle: other 95 % of control | dose: 400.0 mg/kg/injection, schedule: Q04DX003 (ip), vehicle: other 90 % of control

Nc1nc(C=O)c(Cc2ccc(Br)cc2)c(=O)[nH]1
inactive: [11] 123 % of control | dose: 25.0 mg/kg/injection, schedule: Q04DX003 (ip), vehicle: saline with Tween-80 104 % of control | [12] 123 % of control | [19] 104 % of control | [1] 110 % of control | [3] 113 % of control

c1cnc2[nH]cnc2n1
inactive: dose: 100.0 mg/kg/injection, schedule: Q01DX009 (ip), vehicle: saline 95 % of control | [8] 100 % of control | dose: 200.0 mg/kg/injection, schedule: Q01DX009 (ip), vehicle: saline 95 % of control | [9] 100 % of control | [10] 90 % of control

Cc1nnc2n1N=C(c1ccc(O)c(O)c1O)CS2
inactive: [12] 94 % of control | [2] 93 % of control | [17] 107 % of control

C[C@]12C=CC(=O)C=C1CC[C@@H]1[C@@H]2[C@@H](O)C[C@@]2(C)[C@H]1CC[C@]2(O)C(=O)COC(=O)CCC(=O)O
inactive: dose: 66.0 mg/kg/injection, schedule: Q04DX003 (ip), vehicle: saline with Tween-80 113 % of control | [3] 113 % of control | dose: 150.0 mg/kg/injection, schedule: Q04DX003 (ip), vehicle: saline with Tween-80 108 % of control | [17] 118 % of control | [18] 118 % of control | [5] 104 % of control

O=C(NC(CSC(=O)c1ccccc1)C(=O)O)OCc1ccccc1 (centres undefined)
inactive: [14] 95 % of control | [15] 95 % of control | [16] 100 % of control

COc1cc(O)c2c(c1)C1=C(C)C(C)(O)OC1=CC2=O (centres undefined)
inactive: [6] 95 % of control | [7] 100 % of control | [13] 86 % of control

S=C1SCCS1
inactive: [11] 100 % of control | [12] 95 % of control | [2] 104 % of control | [8] 91 % of control

From PubChem BioAssay AID328 (DTP/NCI, 2004)
